Data published in the supplement of paper PMC13380429.

What was measured:
Conditions in all cases: 72 h
[1] = system: Caco-2; experiment: cell viability relative to DMSO; higher = less toxic
[2] = system: Vero E6; experiment: as above
[3] = system: HepG2; experiment: as above
[4] = system: U2OS; experiment: as above
[5] = system: Caco-2; experiment: relative viability EC50 (midpoint between 100% and the lowest measured viability); higher = less toxic
[6] = system: Vero E6; experiment: as above
[7] = system: HepG2; experiment: as above
[8] = system: U2OS; experiment: as above
[9] = system: Caco-2; experiment: drug sensitivity score (DSS) for viability; higher = more toxic; extreme values may be limits of the assay
[10] = system: Vero E6; experiment: as above
[11] = system: HepG2; experiment: as above
[12] = system: U2OS; experiment: as above
[13] = system: Calu-3; experiment: cell viability relative to DMSO; higher = less toxic
[14] = system: Calu-3; experiment: relative viability EC50 (midpoint between 100% and the lowest measured viability); higher = less toxic
[15] = system: Calu-3; experiment: drug sensitivity score (DSS) for viability; higher = more toxic; extreme values may be limits of the assay

Row | Structure (SMILES) | cell viability ([1]; 1 nM) [%] | cell viability ([1]; 10 nM) [%] | cell viability ([1]; 100 nM) [%] | cell viability ([1]; 1000 nM) [%] | cell viability ([1]; 10000 nM) [%] | cell viability ([2]; 1 nM) [%] | cell viability ([2]; 10 nM) [%] | cell viability ([2]; 100 nM) [%] | cell viability ([2]; 1000 nM) [%] | cell viability ([2]; 10000 nM) [%] | cell viability ([3]; 1 nM) [%] | cell viability ([3]; 10 nM) [%] | cell viability ([3]; 100 nM) [%] | cell viability ([3]; 1000 nM) [%] | cell viability ([3]; 10000 nM) [%] | cell viability ([4]; 1 nM) [%] | cell viability ([4]; 10 nM) [%] | cell viability ([4]; 100 nM) [%] | cell viability ([4]; 1000 nM) [%] | cell viability ([4]; 10000 nM) [%] | relative viability EC50 [5] [nM] | relative viability EC50 [6] [nM] | relative viability EC50 [7] [nM] | relative viability EC50 [8] [nM] | drug sensitivity score [9] | drug sensitivity score [10] | drug sensitivity score [11] | drug sensitivity score [12] | cell viability ([13]; 1 nM) [%] | cell viability ([13]; 10 nM) [%] | cell viability ([13]; 100 nM) [%] | cell viability ([13]; 1000 nM) [%] | cell viability ([13]; 10000 nM) [%] | relative viability EC50 [14] [nM] | drug sensitivity score [15]
1 | FC(F)(F)c1ccc(/C=C/c2nc(COc3ccc(CCCCn4ccnn4)cc3)co2)cc1 [mubritinib] | 97.5 | 109 | 92.5 | 81.6 | 84.9 | 103 | 103 | 100 | 103 | 88.4 | 106 | 104 | 78.3 | 56 | 28.1 | 100 | 103 | 93.7 | 93.7 | 97.2 | > 10000 | > 10000 | 429 | > 10000 | 3.1 | 0 | 10.8 | 0 |  |  |  |  |  |  | 
2 | CN(C)NC(=O)CCC(=O)O [daminozide] | 93.5 | 96.3 | 96.5 | 98.3 | 100 | 94.6 | 98.2 | 97.1 | 98.3 | 103 | 103 | 96.4 | 102 | 102 | 103 | 97.8 | 97.8 | 95 | 101 | 101 | > 10000 | > 10000 | > 10000 | > 10000 | 0 | 0 | 0 | 0 |  |  |  |  |  |  | 
3 | COc1cc2c(cc1OC(C)C)[C@H](c1ccc(Cl)cc1)N(c1ccc(N(C)C[C@H]3CC[C@H](N4CCN(C)C(=O)C4)CC3)cc1)C(=O)C2 [CGM097] | 96.6 | 105 | 93.6 | 98.8 | 85.9 | 102 | 105 | 95.1 | 83.3 | 46.9 | 104 | 109 | 100 | 75.2 | 26.1 | 98.1 | 104 | 94.7 | 94.6 | 44.8 | > 10000 | 1450 | 1310 | 2360 | 0.3 | 5 | 7.6 | 3.8 |  |  |  |  |  |  | 
4 | OCCCNc1cc(-c2ccnc(Nc3cccc(Cl)c3)n2)ccn1 | 95.9 | 97.1 | 91.6 | 26.1 | 31.8 | 94.5 | 108 | 81.9 | 5.3 | 15.6 | 93.6 | 111 | 93 | 7.7 | 5.6 | 101 | 95 | 90.9 | 5.8 | 13 | 223 | 178 | 266 | 236 | 14.9 | 20.1 | 17.9 | 18.5 |  |  |  |  |  |  | 
5 | Nc1ncnc2c1ncn2[C@H]1CC[C@@H](CO)O1 [dideoxyadenosine] | 98.6 | 95.3 | 94.6 | 94.6 | 104 | 101 | 98 | 99.3 | 106 | 102 |  |  |  |  |  | 96.3 | 100 | 93.7 | 99.3 | 102 | > 10000 | > 10000 |  | > 10000 | 0 | 0 |  | 0 | 98.8 | 95.4 | 89.1 | 107 | 108 | > 10000 | 0
6 | O=C(CCCCCCCn1cc(-c2cccnc2)nn1)Nc1ccccc1-c1ccccc1 [GPP-78] | 109 | 97.9 | 106 | 4 | 3.6 | 99.2 | 103 | 8.7 | 2.1 | 2.7 | 96.6 | 92 | 103 | 25.4 | 18.8 | 101 | 99.7 | 110 | 0.2 | 0.1 | 352 | 39.5 | 415 | 365 | 16.8 | 28.7 | 13.6 | 17.2 |  |  |  |  |  |  | 
7 | CCCCCOc1ccc(-c2ccc(-c3ccc(C(=O)N[C@H]4C[C@@H](O)[C@@H](O)NC(=O)[C@@H]5[C@@H](O)[C@@H](C)CN5C(=O)[C@H]([C@@H](C)O)NC(=O)[C@H]([C@H](O)[C@@H](O)c5ccc(O)cc5)NC(=O)[C@@H]5C[C@@H](O)CN5C(=O)[C@H]([C@@H](C)O)NC4=O)cc3)cc2)cc1 [anidulafungin] | 110 | 106 | 105 | 105 | 59.2 | 94.8 | 102 | 104 | 101 | 100 | 97.4 | 104 | 97.6 | 97.1 | 68.7 | 94.8 | 95.6 | 96.8 | 98.1 | 94 |  | > 10000 |  | > 10000 | 1.7 | 0 | 1.9 | 0 | 99.6 | 90.1 | 96.6 | 83.2 | 90.5 | > 10000 | 0.5
8 | Cc1ccc2nc(NCCN)c3ncc(C)n3c2c1 | 95.8 | 95.9 | 95.8 | 102 | 66 | 102 | 92.6 | 94.5 | 90.3 | 44 | 111 | 100 | 86.6 | 79.6 | 3.6 | 95.2 | 96.1 | 94.6 | 98.7 | 28.4 |  | 1860 | 1690 | 3040 | 1.4 | 4.6 | 8.6 | 4.1 | 91.9 | 93 | 89.4 | 102 | 70.2 |  | 1.2
